Source: patent US11260050B2, “Combination of cotinine plus antioxidant for treatment-resistant depression and correction of astrocytes functional deficit induced by depression and other neuropathological” (UNIVERSIDAD SAN SEBASTIAN, priority 2017, dated 2022)

Legend:
[1] = tested on: mice subjected to fear conditioning; assay: Novel object recognition after fear conditioning (Example 1, Experiment 3); type: in vivo, C57BL/6 mice; conditions: FC mice, IN post-treatment
Protocol: Mice were treated via IN 2 hours after fear conditioning and continuously until euthanasia.
Mice (n=5-6/condition) received daily treatments with 1. PBS (phosphate buffer saline, pH 7.4) via intranasal (2×12 μl/nostril), 2. Cotinine dissolved in PBS via intranasal (Cot IN, 10 mg/ml, 2×12 μl/nostril); 3. Cotinine+krill oil both dissolved in PBS via intranasal (Cot IN, 10 mg/ml+KO, 48 mg/ml, 2×12 μl/nostril).
Contextual FC was performed as described. The conditioning chamber used is surrounded by a sound-attenuating box with a camera connected to freeze frame software (MED Associates Inc.), also equipped to provide a background white noise (72 dB). The conditioning chamber (33 cm×20 cm×22 cm) contains in one side a speaker and in the opposite slide has a 24V light. The chamber has a 36-bar insulated shock grid floor. […] Freezing behavior that is defined as the absence of all movement except the one needed for breathing was assessed using the FreezeView Software (MED Associates Inc.).
After a habituation step in the OF arena, each mouse was individually placed in the apparatus containing two identical objects located equidistant to each other (familiarization phase) and left to explore the objects for 5 min. […] The time exploring the two objects was recorded during 5 min. […]

GFAP = GFAP immunoreactivity and GFAP+ cell density, hippocampus and frontal cortex (Example 2); type: in vivo, C57BL/6 male mice
Protocol: Mice between 2-3 months of age after one week of acclimatization were randomly divided into two groups. Stressed mice were subjected to restraint stress. Control (non-restrained) mice were allowed to move freely during this period. After the stress exposure period, mice were divided into three experimental groups: 1) Non-restrained mice treated with vehicle (PBS, pH 7.4) serving as unstressed controls (n=8); 2) Restrained mice (RS) treated with vehicle (n=8); 3), RS mice treated with 24 μl of a cotinine solution (10 mg/ml in PBS, pH 7.4) via intranasal route of administration (n=6). Treatments were administered daily until euthanasia. After two weeks of treatments mice were behaviorally tested and euthanized (FIG. 10)
For all protein analyses, mice were euthanized and brains removed. Each brain was divided into two hemispheres. The left hemisphere of brains was dissected out to collect the regions of interest and quickly frozen for later analyses. For the immunohistochemical (IHC) analysis the right hemisphere of each mouse brain was placed in 10% formalin in PBS pH 7.4 for 48 h and then embedded in paraffin. Each region of interest was located using Paxinos Atlas as a reference (Paxinos and Franklin, 2004), and serial […] of 4 μm (n≥5/mouse) were collected using the Microtome Leica RM 2125RT and mounted on silanized glass slides.
The analysis of GFAP^+ cells was performed using tissue slices containing the ventral hippocampus (Approx. Bregma −4.08 mm, interaural 4.92 mm) and frontal cortex (Approx. Bregma 3.2 mm, interaural 1.54 mm). Sagittal sections of brains were collected in PBS and processed for GFAP immunoreactivity (IR). Brain slices were immersed in xylene and a decreasing graduation of ethanol baths for hydration. Then, slides were subjected to a standard process of antigenic recovery in buffer citrate pH=6 in a pressurized saucepan (Biocare Medical, Walnut Creek, Calif.) for 30 min. Next, slides were incubated with a solution of 3% hydrogen peroxide to block endogenous peroxidase for 5 min, washed with PBS, and blocked with a horse serum solution (Vectastain Elite ABC, Vector Laboratories, Burlingame, Calif., USA) for 10 min at room temperature (RT). Sections were washed in PBS and incubated for 1 hour (Franklin, 2001) at RT with an antibody against GFAP 1:100 (Sigma). After washing with PBS, sections were incubated with a biotinylated secondary antibody for 10 min. Then, sections were washed with PBS and incubated with the amplifier solution from the Vectastain Elite kit for 10 min at RT. The reaction was visualized using ImmunoDetector DAB (SB Bio Inc., Santa Barbara, Calif., USA). For counterstaining, sections were stained with hematoxylin for 30 seconds (sec), dehydrated in baths of ascending percentages of alcohol solutions and xylene, and mounted with synthetic resin.
For the IR analysis, for each mouse, three digital images were randomly selected at 40× magnifications in the areas of interest (hippocampus and frontal cortex) (n=5-6/condition). […] The determination of the area of the immunolabeling was calculated delimiting the IR areas using the ImageJ software (National Institute of Health, Bethesda, […]., USA). For all analyses, GFAP^+ astrocytes were selected randomly from the frontal cortex and the CA1, CA3 and dentate gyrus regions of the hippocampus and quantified. […]

[2] = cotinine IN administered after RS

SMILES: CN1C(=O)CC[C@H]1c1cccnc1 [Cotinine, (5S)-1-methyl-5-(3-pyridyl) pyrrolidin-2-one]
- number of entries to the new object area (NOR) ([1]; Cotinine p<0.05, Cotinine+KO p<0.01): higher number of entries to the new object area than PBS-treated FC mice
- time exploring the new object (NOR) ([1]; both p<0.05): spent more time than PBS-treated FC mice
- number of hippocampal GFAP+ cells counted (GFAP; Ctrl 144, RS 97): 140
- GFAP IR in the frontal cortex (GFAP; [2]): 90 % of control values
- GFAP IR in the hippocampus (GFAP; [2]): 84 % of control value
- GFAP+ cell density in hippocampal regions (GFAP; restrained mice, CA1 p<0.01, CA2 p<0.05, DG p<0.01): significantly higher in the cotinine-treated restrained mice relative to vehicle-treated restrained mice
- GFAP+ cell density in control (non-stressed) mice (GFAP; vehicle-treated vs cotinine-treated control mice): No significant differences
